These results are taken from patent US20020193564A1, “Oligomeric chaperone proteins” (priority 1999, published 2002).

Experiment [1] concerns the target T1, heat- and dithiothreitol-denatured mtMDH (Sus scrofa, UniProt P00346).
T1 construct: Boehringer-Mannheim); purchased Boehringer-Mannheim; host or cells: pig heart
T1 sequence (P00346 25-338): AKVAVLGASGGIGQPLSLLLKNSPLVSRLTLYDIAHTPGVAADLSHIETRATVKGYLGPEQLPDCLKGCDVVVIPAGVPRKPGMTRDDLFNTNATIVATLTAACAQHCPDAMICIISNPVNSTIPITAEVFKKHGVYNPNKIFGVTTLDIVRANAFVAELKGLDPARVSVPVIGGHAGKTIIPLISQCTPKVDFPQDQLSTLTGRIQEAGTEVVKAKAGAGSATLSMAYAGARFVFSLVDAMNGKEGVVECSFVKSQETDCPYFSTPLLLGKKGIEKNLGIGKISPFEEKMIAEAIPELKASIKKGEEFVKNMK
The experiment is described as follows: In vitro refolding of denatured mtMDH. The class given is biochemical, pig. As to conditions: 25° C., chaperone alone, FIG. 7b. The method, then:
In vitro Refolding Experiments.
Refolding assays of pig heart mitochondrial malate dehydrogenase (mtMDH; Boehringer-Mannheim) and aggregation protection were carried out essentially as described (Peres Ben-Zvi, A. P., Chatellier, J., Fersht, A. R. & Goloubinoff, P. (1998) Proc. Natl. Acad. Sci. U.S.A. 95, 15275-15280). The concentrations of MC7 used were between 8-16 μM (reporter to protomer).

A further experiment concerns bacteriophage T4. As to the kind of experiment: Growth of bacteriophage T4 in transformed groEL strains. Format: cell-based, bacteriophage T4 (T4D0) in E. coli. Set-up: key to Growth of bacteriophage T4, SV1 (groEL^+) / Growth of bacteriophage T4, SV2 groEL44 / Growth of bacteriophage T4, SV3 GroEL59 / Growth of bacteriophage T4, SV6 groEL673: +++: normal plaque-forming ability relative to wild-type groEL^+ strain, in terms of both number and size; ++: 5-fold fewer plaques relative to wild-type groEL^+ strain, or both; 10-fold fewer plaques, or plaque size reduced relative to wild-type groEL^+ strain, or both; +/−: 10^2-fold fewer plaques and plaque size reduced relative to wild-type groEL^+ strain; no visible plaques (<10^−4). Conditions: 37° C. From the text: The E. Coli strains used in this study were: C41(DE3), a mutant of BL21(DE3) capable of expressing toxic genes (Miroux, B. & Walker, J. E. (1996) J. Mol. Biol. 260, 289-298); SV2 (B178groEL44), SV3 (B178groEL59) and SV6 (B178groEL673): isogenic strains carrying temperature-sensitive alleles of groEL; SV1(=B178) (Georgopoulos, C., Hendrix, R. W., Casjens, S. R. & Kaiser, A. D. (1973) J. Mol. Biol. 76, 45-60), A190 (ΔgroEL::kan^R) [pBAD-EL] (Ivic, A., Olden, D., Wallington, E. J. & Lund, P. A. (1997) Gene 194, 1-8), and TG1 (Gibson, T. J. (1984) Ph.D. thesis, University of Cambridge, U.K). Bacteriophage λb2cI (Zeilstra-Ryalls, J., Fayet, O., Baird, L. & Georgopoulos, C. (1993) J. Bacteriol. 175, 1134-1143) was used according to standard methods (Arber, W., Enquist, L., Hohn, B., Murray, N. E. & Murray, K. (1983) in Lambda II., ed. R. W. Hendrix, J. W. r., F. W. Stahl and R. A. Weisberg (Cold Spring Harbor Laboratory, Cold Spring Harbor, N.Y.), pp. 433-466); plaque formation was assayed at 30° C. T4D0, a derivative of bacteriophage T4 (Zeilstra-Ryalls, J., Fayet, O., Baird, L. & Georgopoulos, C. (1993) J. Bacteriol. 175, 1134-1143), was used according to standard methods (Karam, J. D. (1994) Molecular biology of bacteriophage T4. (American Society for Microbiology, Washington, D.C.)); plaque formation was assayed at 37° C.

For the substance “GroEL(1-548): key molecular chaperone in Escherichia coli, 14 subunits of 57.5 kD in two seven membered rings”, the “rate of refolding denatured mtMDH” value in experiment [1] amounted to 0.04 nM/min. In the experiment on bacteriophage T4 (SV1), the “Growth of bacteriophage T4, SV1 (groEL^+)” value is given as “+++”. Also, in the experiment on bacteriophage T4 (SV2), the “Growth of bacteriophage T4, SV2 groEL44” value is on record as “+++”. Moreover, the “Growth of bacteriophage T4, SV3 GroEL59” value in the experiment with bacteriophage T4 (SV3) is “+++”. In addition, in the experiment on bacteriophage T4 (SV6), the “Growth of bacteriophage T4, SV6 groEL673” value is given as “+++”.
